In one assay the target is SMARCA4 (Homo sapiens, UniProt P51532). Nature of the assay: HiBiT assay for protein degradation, Hela SMARCA4-HiBiT cells (A series). As to conditions: for DC50: read-out: SMARC A4 Hela HiBit DC50. The format is cell-based. More on the design: fuse HiBiT to the carboxy terminus of SMARCA2 (Promega CS302365) or SMARCA4 (Promega CS3023225); host or cells: HeLa (CRISPR/Cas9 HiBiT knock-in). A digest of the protocol:
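HeLa cells engineered by CRISPR/Cas9 to carry a HiBiT tag fused to the C-terminus of SMARCA4 (Promega CS3023225) were grown in DMEM supplemented with FBS and penicillin-streptomycin. After compound exposure, remaining SMARCA4 protein was quantified using the Nano-Glo® HiBiT Lytic Detection Assay (Promega N3050), and curves were fitted in GraphPad Prism.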
Background: With HiBiT, luminescence reflects the tagged protein that the partner subunit can reach.

The target in a further assay is SMARCA2 (Homo sapiens, UniProt P51531). Nature of the assay: HiBiT assay for protein degradation, Hela SMARCA2-HiBiT cells (A series).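 For SMARC A2 Hela HiBit Dmax (%): 24 h compound treatment.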 The format is cell-based. More on the design: Hela cells were genetically modified via CRISPR/Cas9 to fuse HiBiT to the carboxy terminus of SMARCA2; host or cells: HeLa (CRISPR/Cas9 HiBiT knock-in). As to conditions: for DC50: read-out: SMARC A2 Hela HiBit DC50; for Dmax: read-out: SMARC A2 Hela HiBit Dmax (%). A digest of the protocol: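 HeLa cells engineered by CRISPR/Cas9 to carry a HiBiT tag fused to the C-terminus of SMARCA2 (Promega CS302365) were grown in DMEM supplemented with FBS and penicillin-streptomycin. After treatment, remaining SMARCA2 protein was quantified with the Nano-Glo® HiBiT Lytic Detection Assay (Promega N3050), and curves were fitted in GraphPad Prism.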

The mark [1] stands for this setting: Hela SMARCA4-HiBiT cells, 24 hours treatment.
Where [2] appears, read: Hela SMARCA4-HiBiT cells, 24 hours treatment, read-out: SMARC A4 Hela HiBit Dmax.
The mark [3] stands for this setting: Hela SMARCA2-HiBiT cells, 24 hours treatment.
[4] abbreviates: Hela SMARCA4-HiBiT cells, 24 hours treatment, read-out: SMARC A4 Hela HiBit Dmax(%).
Setting [5] is: HeLa, read-out: SMARC A4 Hela HiBit Dmax(%).

Where two headings read alike, the source gives them in different places. Some results are limits rather than exact numbers.

The values that follow come from patent US20260092071A1, “COMPOUNDS AND COMPOSITIONS AS SMARCA2/4 DEGRADERS AND USES THEREOF” (REGENTS OF THE UNIVERSITY OF MICHIGAN, priority 2022, published 2026).

SMARCA2, sequence (P51531 whole entry, the tested form may be a part): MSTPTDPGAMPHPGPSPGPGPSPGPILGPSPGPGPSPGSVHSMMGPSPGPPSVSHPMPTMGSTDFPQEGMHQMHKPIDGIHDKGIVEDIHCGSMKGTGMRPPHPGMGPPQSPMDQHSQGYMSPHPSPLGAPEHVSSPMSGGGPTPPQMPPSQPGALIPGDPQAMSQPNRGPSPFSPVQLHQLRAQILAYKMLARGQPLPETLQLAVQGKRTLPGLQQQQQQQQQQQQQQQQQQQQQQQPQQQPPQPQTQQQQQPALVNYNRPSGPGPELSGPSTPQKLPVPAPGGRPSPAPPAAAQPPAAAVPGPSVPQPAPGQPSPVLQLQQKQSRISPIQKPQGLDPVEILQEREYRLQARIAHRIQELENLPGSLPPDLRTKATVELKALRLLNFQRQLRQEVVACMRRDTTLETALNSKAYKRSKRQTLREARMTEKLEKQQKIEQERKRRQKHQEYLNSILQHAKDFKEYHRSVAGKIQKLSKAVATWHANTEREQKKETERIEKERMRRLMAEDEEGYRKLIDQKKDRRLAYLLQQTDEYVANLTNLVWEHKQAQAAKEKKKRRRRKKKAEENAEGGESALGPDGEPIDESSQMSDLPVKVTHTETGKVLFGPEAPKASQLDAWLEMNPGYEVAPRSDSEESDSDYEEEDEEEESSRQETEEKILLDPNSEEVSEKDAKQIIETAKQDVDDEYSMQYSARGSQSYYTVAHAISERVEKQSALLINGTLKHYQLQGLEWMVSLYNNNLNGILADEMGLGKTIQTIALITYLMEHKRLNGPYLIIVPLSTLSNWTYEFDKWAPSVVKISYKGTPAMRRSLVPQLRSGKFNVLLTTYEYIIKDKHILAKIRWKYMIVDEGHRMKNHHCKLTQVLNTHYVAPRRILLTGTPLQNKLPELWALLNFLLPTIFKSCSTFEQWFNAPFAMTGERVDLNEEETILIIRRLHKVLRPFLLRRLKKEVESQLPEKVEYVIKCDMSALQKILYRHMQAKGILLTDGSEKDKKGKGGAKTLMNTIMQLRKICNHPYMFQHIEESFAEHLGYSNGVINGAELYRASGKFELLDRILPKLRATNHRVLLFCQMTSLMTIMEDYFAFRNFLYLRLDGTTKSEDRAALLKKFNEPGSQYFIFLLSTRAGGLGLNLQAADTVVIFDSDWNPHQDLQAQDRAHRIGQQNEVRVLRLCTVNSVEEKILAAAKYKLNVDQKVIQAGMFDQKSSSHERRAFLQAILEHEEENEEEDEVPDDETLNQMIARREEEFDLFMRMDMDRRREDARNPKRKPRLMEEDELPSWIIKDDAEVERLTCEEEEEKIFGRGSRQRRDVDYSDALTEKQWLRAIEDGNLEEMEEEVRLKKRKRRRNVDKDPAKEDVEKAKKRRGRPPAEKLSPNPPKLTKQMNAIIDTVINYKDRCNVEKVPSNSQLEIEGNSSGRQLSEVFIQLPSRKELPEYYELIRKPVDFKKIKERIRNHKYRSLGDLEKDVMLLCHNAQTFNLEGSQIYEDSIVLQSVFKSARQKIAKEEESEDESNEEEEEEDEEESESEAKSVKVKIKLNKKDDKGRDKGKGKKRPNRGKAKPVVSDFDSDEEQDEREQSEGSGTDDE
SMARCA4, sequence (P51532 whole entry, the tested form may be a part): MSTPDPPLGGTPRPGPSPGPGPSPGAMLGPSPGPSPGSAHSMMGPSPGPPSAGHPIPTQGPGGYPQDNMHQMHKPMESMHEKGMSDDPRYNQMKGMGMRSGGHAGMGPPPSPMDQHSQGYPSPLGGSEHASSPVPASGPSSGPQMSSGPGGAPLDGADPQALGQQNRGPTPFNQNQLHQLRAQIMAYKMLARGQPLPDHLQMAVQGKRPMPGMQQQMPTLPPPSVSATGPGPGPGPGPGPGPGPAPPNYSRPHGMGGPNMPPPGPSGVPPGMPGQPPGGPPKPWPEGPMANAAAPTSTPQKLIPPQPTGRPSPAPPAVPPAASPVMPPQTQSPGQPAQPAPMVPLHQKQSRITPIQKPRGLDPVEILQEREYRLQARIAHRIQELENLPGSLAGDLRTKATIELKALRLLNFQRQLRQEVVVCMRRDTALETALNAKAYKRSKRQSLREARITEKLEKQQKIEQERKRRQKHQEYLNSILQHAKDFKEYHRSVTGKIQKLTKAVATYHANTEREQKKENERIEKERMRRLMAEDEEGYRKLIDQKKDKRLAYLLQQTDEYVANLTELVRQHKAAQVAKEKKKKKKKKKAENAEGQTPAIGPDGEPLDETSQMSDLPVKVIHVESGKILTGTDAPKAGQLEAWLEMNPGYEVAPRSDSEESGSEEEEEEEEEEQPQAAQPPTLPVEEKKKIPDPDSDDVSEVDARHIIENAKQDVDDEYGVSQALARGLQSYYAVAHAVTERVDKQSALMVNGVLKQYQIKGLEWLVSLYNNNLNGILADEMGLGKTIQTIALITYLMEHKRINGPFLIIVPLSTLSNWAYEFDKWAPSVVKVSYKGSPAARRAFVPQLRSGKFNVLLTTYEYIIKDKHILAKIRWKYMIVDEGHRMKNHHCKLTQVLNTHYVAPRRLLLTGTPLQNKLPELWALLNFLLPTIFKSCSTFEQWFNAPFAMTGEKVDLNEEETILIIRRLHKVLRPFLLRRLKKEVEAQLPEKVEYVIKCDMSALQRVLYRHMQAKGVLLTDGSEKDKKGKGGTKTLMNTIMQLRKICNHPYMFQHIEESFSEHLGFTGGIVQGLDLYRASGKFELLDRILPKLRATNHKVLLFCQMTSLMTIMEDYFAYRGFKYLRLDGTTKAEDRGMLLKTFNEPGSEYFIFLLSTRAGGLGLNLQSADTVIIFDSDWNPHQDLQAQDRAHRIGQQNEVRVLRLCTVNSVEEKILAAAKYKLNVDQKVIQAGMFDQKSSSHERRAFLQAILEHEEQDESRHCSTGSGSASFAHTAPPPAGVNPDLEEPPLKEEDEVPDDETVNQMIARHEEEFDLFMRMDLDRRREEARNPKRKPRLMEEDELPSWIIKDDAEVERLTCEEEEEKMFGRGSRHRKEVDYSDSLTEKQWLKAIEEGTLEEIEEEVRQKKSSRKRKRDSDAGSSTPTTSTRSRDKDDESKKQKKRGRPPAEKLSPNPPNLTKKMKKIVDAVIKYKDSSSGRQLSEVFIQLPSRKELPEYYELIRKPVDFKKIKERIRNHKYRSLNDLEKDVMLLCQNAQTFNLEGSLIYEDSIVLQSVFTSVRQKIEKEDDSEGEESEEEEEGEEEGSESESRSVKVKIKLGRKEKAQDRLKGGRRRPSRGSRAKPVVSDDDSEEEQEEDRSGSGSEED

By DC50 is commonly meant the midpoint of the concentration-degradation curve. In general, Dmax refers to the greatest extent of degradation seen. Turning to `Cc1ncsc1-c1ccc([C@H](C)NC(=O)[C@@H]2C[C@@H](O)CN2C(=O)[C@H](C2CCN(C(=O)CN3CCC(c4ccc5c(c4)-n4c(nc(=O)c6c(Cl)cccc64)C54CCCCC4)CC3)CC2)n2cc(C3CC3)nn2)cc1` [Compound A105, (2S,4R)-1-((S)-2-(1-(2-(4-(4′-chloro-5′-oxo-5′H-spiro[cyclohexane-1,7′-indolo[1,2-a]quinazolin]-10′-yl)piperidin-1-yl)acetyl)piperidin-4-yl)-2-(4-cyclopropyl-1H-1,2,3-triazol-1-yl)acetyl)-4-hydroxy-N—((S)-1-(4-(4-methylthiazol-5-yl)phenyl)ethyl)pyrrolidine-2-carboxamide], the DC50 is over 1000 nM at SMARCA4 (setting [1]) and 100 to 1000 nM at SMARCA2 (setting [3]). The greatest degradation seen (Dmax) was under 50% on SMARCA4 (setting [2]) and 50 to 69% on SMARCA2 (setting [3]).
With `Cc1ncsc1-c1ccc([C@H](C)NC(=O)[C@@H]2C[C@@H](O)CN2C(=O)[C@@H](n2cc(CCCN3CCC(c4ccc5c(c4)-n4c(nc(=O)c6c(Br)cccc64)C54CCCCC4)CC3)nn2)C(C)(C)C)cc1` [Compound A44, (2S,4R)-1-((S)-2-(4-(3-(4-(4′-bromo-5′-oxo-5′H-spiro[cyclohexane-1,7′-indolo[1,2-a]quinazolin]-10′-yl)piperidin-1-yl)propyl)-1H-1,2,3-triazol-1-yl)-3,3-dimethylbutanoyl)-4-hydroxy-N—((S)-1-(4-(4-methylthiazol-5-yl)phenyl)ethyl)pyrrolidine-2-carboxamide], the “SMARC A4 Hela HiBit Dmax(%)” value on SMARCA4 (setting [1]) is “B (B (70-90% degradation))”. Also, the DC50 at SMARCA4 and on SMARCA2 was under 100 nM in each case. Further, on SMARCA2 (setting [3]), the “SMARC A2 Hela HiBit Dmax (%)” value was “A (A (>90% degradation))”.
As to `Cc1ncsc1-c1ccc([C@H](CN2CCOCC2)NC(=O)[C@@H]2C[C@@H](O)CN2C(=O)[C@H](C2CCCCC2)n2cc([C@H]3CC[C@H](CN4CCC(c5ccc6c(c5)-n5c(nc(=O)c7c(Br)cccc75)C65CCCCC5)CC4)CC3)nn2)cc1` [Compound A123, (2S,4R)-1-((S)-2-(4-((1r,4S)-4-((4-(4′-bromo-5′-oxo-5′H-spiro[cyclohexane-1,7′-indolo[1,2-a]quinazolin]-10′-yl)piperidin-1-yl)methyl)cyclohexyl)-1H-1,2,3-triazol-1-yl)-2-cyclohexylacetyl)-4-hydroxy-N—((R)-1-(4-(4-methylthiazol-5-yl)phenyl)-2-morpholinoethyl)pyrrolidine-2-carboxamide], the DC50 on SMARCA4 (setting [1]) was 10 to 100 nM; at SMARCA2 (setting [3]), under 10 nM. For the same molecule, the figures for the Dmax at SMARCA4 (setting [2]) and on SMARCA2 (setting [3]) were 70 to 90% and over 90%, respectively.
Consider `Cc1ncsc1-c1ccc([C@H](C)NC(=O)[C@@H]2C[C@@H](O)CN2C(=O)[C@@H](NC(=O)[C@H]2CC[C@H](CN3CC(N4CCC(c5ccc6c(c5)C5(CCCCC5)c5nc(=O)c7c(Cl)cccc7n5-6)CC4)C3)CC2)C(C)(C)C)cc1` [Compound A12, (2S,4R)-1-((S)-2-((1r,4S)-4-((3-(4-(4′-chloro-5′-oxo-5′H-spiro[cyclohexane-1,7′-indolo[1,2-a]quinazolin]-9′-yl)piperidin-1-yl)azetidin-1-yl)methyl)cyclohexane-1-carboxamido)-3,3-dimethylbutanoyl)-4-hydroxy-N—((S)-1-(4-(4-methylthiazol-5-yl)phenyl)ethyl)pyrrolidine-2-carboxamide], for which the values for the DC50 on SMARCA4 (setting [1]) and on SMARCA2 (setting [3]) were 501 to 1000 nM and 100 to 500 nM, respectively. For the same molecule, the Dmax on SMARCA4 (setting [4]) is 50 to 69%; at SMARCA2 (setting [3]), 70 to 90%.
In the case of `Cc1ncsc1-c1ccc([C@H](COCC(=O)O)NC(=O)[C@@H]2C[C@@H](O)CN2C(=O)[C@@H](n2cc([C@H]3CC[C@H](CN4CCC(c5ccc6c(c5)-n5c(nc(=O)c7c(Cl)cccc75)C65CCCCC5)CC4)CC3)nn2)C(C)(C)C)cc1` [Compound A155, 2-((R)-2-((2S,4R)-1-((S)-2-(4-((1r,4S)-4-((4-(4′-chloro-5′-oxo-5′H-spiro[cyclohexane-1,7′-indolo[1,2-a]quinazolin]-10′-yl)piperidin-1-yl)methyl)cyclohexyl)-1H-1,2,3-triazol-1-yl)-3,3-dimethylbutanoyl)-4-hydroxypyrrolidine-2-carboxamido)-2-(4-(4-methylthiazol-5-yl)phenyl)ethoxy) acetic acid], the 50% degradation concentration (DC50) on SMARCA4 (setting [1]) is over 1000 nM; on SMARCA2 (setting [3]), 100 to 1000 nM. For the same molecule, the Dmax is under 50% at SMARCA4 (setting [2]) and 70 to 90% on SMARCA2 (setting [3]).
On to `Cc1ncsc1-c1ccc([C@H](C)NC(=O)[C@@H]2C[C@@H](O)CN2C(=O)[C@@H](NC(=O)CN2CCC(c3ccc4c(c3)C3(CCCCC3)c3nc(=O)c5c(Cl)cccc5n3-4)CC2)C(C)(C)C)cc1` [Compound A5, (2S,4R)-1-((S)-2-(2-(4-(4′-chloro-5′-oxo-5′H-spiro[cyclohexane-1,7′-indolo[1,2-a]quinazolin]-9′-yl)piperidin-1-yl)acetamido)-3,3-dimethylbutanoyl)-4-hydroxy-N—((S)-1-(4-(4-methylthiazol-5-yl)phenyl)ethyl) pyrrolidine-2-carboxamide], for which the Dmax at SMARCA4 (setting [5]) and at SMARCA2 (HeLa) was over 90% throughout. Further, the DC50 on SMARCA4 (setting [1]) and at SMARCA2 (setting [3]) was under 100 nM in each case.
For the molecule `Cc1ncsc1-c1ccc([C@H](CCCCN2CCC(c3ccc4c(c3)C3(CCCC3)c3nc(=O)c5c(Cl)cccc5n3-4)CC2)NC(=O)[C@@H]2C[C@@H](O)CN2C(=O)[C@@H](NC(=O)C2(F)CC2)C(C)(C)C)cc1` [Compound A1, (2S,4R)-N-((S)-5-(4-(4′-chloro-5′-oxo-5′H-spiro[cyclopentane-1,7′-indolo[1,2-a]quinazolin]-9′-yl)piperidin-1-yl)-1-(4-(4-methylthiazol-5-yl)phenyl)pentyl)-1-((S)-2-(1-fluorocyclopropane-1-carboxamido)-3,3-dimethylbutanoyl)-4-hydroxypyrrolidine-2-carboxamide], the values for the half-maximal degradation concentration (DC50) at SMARCA4 (setting [1]) and at SMARCA2 (setting [3]) were 100 to 500 nM and under 100 nM, respectively. Besides, the maximal degradation (Dmax) on SMARCA4 (setting [4]) was 70 to 90%; at SMARCA2 (setting [3]), over 90%.
Consider `Cc1ncsc1-c1ccc([C@H](C)NC(=O)[C@@H]2C[C@@H](O)CN2C(=O)[C@@H](n2cc([C@H]3CC[C@H](CN4CCC(c5ccc6c(c5)-n5c(nc(=O)c7c(Br)cccc75)C65CCCCC5)CC4)CC3)nn2)C(C)(C)C)cc1` [Compound A62, (2S,4R)-1-((S)-2-(4-((1r,4S)-4-((4-(4′-bromo-5′-oxo-5′H-spiro[cyclohexane-1,7′-indolo[1,2-a]quinazolin]-10′-yl)piperidin-1-yl)methyl)cyclohexyl)-1H-1,2,3-triazol-1-yl)-3,3-dimethylbutanoyl)-4-hydroxy-N—((S)-1-(4-(4-methylthiazol-5-yl)phenyl)ethyl)pyrrolidine-2-carboxamide], for which the greatest degradation seen (Dmax) at SMARCA4 (setting [5]) is 70 to 90%; on SMARCA2 (HeLa) it was over 90%. Besides, the DC50 on SMARCA4 and at SMARCA2 was under 100 nM throughout.
As for `Cc1ncsc1-c1ccc([C@H](C)NC(=O)[C@@H]2C[C@@H](O)CN2C(=O)[C@H](C2CCCCC2)n2cc([C@H]3CC[C@H](CN4CCC(c5ccc6c(c5)-n5c(nc(=O)c7c(Cl)cccc75)C65CCCCC5)CC4)CC3)nn2)cc1` [Compound A118, (2S,4R)-1-((S)-2-(4-((1r,4S)-4-((4-(4′-chloro-5′-oxo-5′H-spiro[cyclohexane-1,7′-indolo[1,2-a]quinazolin]-10′-yl)piperidin-1-yl)methyl)cyclohexyl)-1H-1,2,3-triazol-1-yl)-2-cyclohexylacetyl)-4-hydroxy-N—((S)-1-(4-(4-methylthiazol-5-yl)phenyl)ethyl)pyrrolidine-2-carboxamide], the DC50 at SMARCA4 (setting [1]) is 100 to 1000 nM; at SMARCA2 (setting [3]) it was under 10 nM. Moreover, the Dmax is 50 to 69% at SMARCA4 (setting [2]) and over 90% at SMARCA2 (setting [3]).
For `Cc1ncsc1-c1ccc([C@H](CNC(=O)[C@H]2CC[C@H](CN3CCC(c4ccc5c(c4)-n4c(nc(=O)c6c(Br)cccc64)C54CCCCC4)CC3)CC2)NC(=O)[C@@H]2C[C@@H](O)CN2C(=O)[C@@H](n2cc(C3CC3)nn2)C(C)(C)C)cc1` [Compound A116, (2S,4R)—N—((R)-2-((1r,4R)-4-((4-(4′-bromo-5′-oxo-5′H-spiro[cyclohexane-1,7′-indolo[1,2-a]quinazolin]-10′-yl)piperidin-1-yl)methyl)cyclohexane-1-carboxamido)-1-(4-(4-methylthiazol-5-yl)phenyl)ethyl)-1-((S)-2-(4-cyclopropyl-1H-1,2,3-triazol-1-yl)-3,3-dimethylbutanoyl)-4-hydroxypyrrolidine-2-carboxamide], in that order: over 1000 nM, over 1000 nM, under 50% and under 50%.
